Values quoted from earlier work as cited in patent US20160184212A1, “PHOTO-ACTIVATED HYDROGELS” (L'Oreal, priority 2014, published 2016).

water solubility: water soluble
Compound: O=C1c2ccccc2C(=O)c2cc(S(=O)(=O)[O-])ccc21.[Na+] [anthraquinone-2-sulfonic acid sodium salt]
